In ChEMBL document CHEMBL1124075, “Design, synthesis, and biological activity of a peptide mimic of vasopressin” (J Med Chem, 1988):
Bridge positions count the residues as written; N and C are the ends. Square brackets hold non-standard residues; d marks the D form. Peptide text beside a SMILES is read from it. Mpa = O=C(O)CCS

Experiments:
[1] = biological target: Vasopressin V2 receptor (Sus scrofa) (UniProt P32307); test: Vasopressin V2 receptor binding affinity measured by competition with tritiated LVP lysine vasopressin in pig renal medullary preparation; settings: Renal medulla
Vasopressin V2 receptor (Sus scrofa), sequence (P32307 whole entry): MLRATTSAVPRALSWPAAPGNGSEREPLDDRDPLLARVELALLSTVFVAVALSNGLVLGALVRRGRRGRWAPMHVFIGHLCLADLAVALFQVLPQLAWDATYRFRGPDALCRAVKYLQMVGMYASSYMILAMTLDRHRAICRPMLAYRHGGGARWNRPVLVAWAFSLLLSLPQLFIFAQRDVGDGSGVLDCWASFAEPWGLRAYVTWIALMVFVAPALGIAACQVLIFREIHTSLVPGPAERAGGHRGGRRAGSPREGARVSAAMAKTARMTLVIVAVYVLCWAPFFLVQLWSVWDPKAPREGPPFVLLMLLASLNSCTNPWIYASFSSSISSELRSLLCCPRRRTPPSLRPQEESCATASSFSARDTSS

Vasopressin V2 receptor = Vasopressin V2 receptor (Sus scrofa, UniProt P32307); test: Inhibition of LVP-sensitive adenylate cyclase in a pig renal medullary preparation; type: tissue-based, Renal medulla
Vasopressin V2 receptor, sequence (P32307 whole entry): as above

K bind [1] | Ki (Vasopressin V2 receptor) | SMILES
29 µM | 9.2 µM | CC(C)[C@@H]1NC(=O)[C@H](Cc2ccccc2)NC(=O)[C@H](Cc2ccccc2)NC(=O)CCC[C@H](C(=O)N2CCC[C@H]2C(=O)N[C@@H](CCCN=C(N)N)C(=O)NCC(N)=O)NC(=O)[C@H](CC(N)=O)NC1=O
0.1 µM | 0.01 µM | CC(C)[C@@H]1NC(=O)[C@H](Cc2ccccc2)NC(=O)[C@H](Cc2ccccc2)NC(=O)CCSSC[C@@H](C(=O)N2CCC[C@H]2C(=O)N[C@@H](CCCN=C(N)N)C(=O)NCC(N)=O)NC(=O)[C@H](CC(N)=O)NC1=O ([Mpa]FFVNCPRG-NH2; disulfide 1-6)
15 µM | 7 µM | CC(C)[C@@H]1NC(=O)[C@H](Cc2ccccc2)NC(=O)[C@H](Cc2ccccc2)NC(=O)CCC[C@@H](C(=O)N2CCC[C@H]2C(=O)N[C@@H](CCCN=C(N)N)C(=O)NCC(N)=O)NC(=O)[C@H](CC(N)=O)NC1=O
